Measured values as given in US11180510B2, “Xanthine derivatives and uses thereof as inhibitors of bromodomains of BET proteins” (Centre national de la recherche scientifique, priority 2017, dated 2021).
pIC50, pKd: −log10 of the molar value. Read-outs that look alike come from different tables or passages of the source.

What was measured:
Brdt(BD1) = target: T1, Brdt(BD1) (Homo sapiens, UniProt Q58F21); experiment: HTRF BET selectivity profile, Brdt(BD1); format: binding
T1 construct: GST tagged bromodomain proteins were purchased from BPS Bioscience; purchased BPS Bioscience
Procedure: (§1) HTRF assays were performed in white 384 Well Small Volume™ HiBase Polystyrene Microplates (Greiner) with a total working volume of 20 μL. Compounds were dispensed, with 100 nL per well (0.5% final DMSO), from a concentration stock of 10 mM in 100% DMSO and with serial DMSO dilutions, using an Echo® 550 robot from the Access Labcyte platform (Labcyte) and based on the transfer of liquid by acoustic wave. Then, 19.5 μL of buffer is added, using a Multidrop Combi (Thermo Fisher Scientific). Finally, for each assay, 200 nL of master mix (protein+donor+acceptor) and 200 nL of peptide Is added in the assay wells according to the final concentration and buffer described in Table 3, using the Echo® 550 robot (Labcyte). The IC50 measurements were performed in triplicates (Table 2 and 3). All HTRF reagents (donor and acceptor) were purchased from CisBio Bioassays and reconstituted according to the supplier protocols. The peptide was purchased from Genic Bio Synthetic. The BRD4(1) protein was produced and purified in the laboratory. HTRF signals were measured, after a final incubation (3 h or 6 h or overnight at room temperature or 4° C., according to the bromodomain), using a PHERAstar FS (BMG Labtech) with an excitation filter at 337 nm and fluorescence wavelength measurement at 620 and 665 nm, an integration delay of 60 μs and an integration time of 500 μs. Results were analyzed with a two-wavelengths signal ratio: [intensity (665 nm)/intensity (620 nm)]*104.
(§2) Percentage of inhibition was calculated using the following equation: % inhibition=[(compound signal)−(min signal)]/[(max signal)−(min signal)]*100, where ‘max signal’ is the signal ratio with the compound vehicle alone (DMSO) and ‘min signal’ the signal ratio without peptide.
(§3) Selectivity profiles of bromodomain inhibitors were performed as described in HTRF screen section. […] HTRF detection reagents (EPIgeneous™ Binding Domain kits) were purchased from Cisbio Bioassays and used according to supplier's protocol. GST tagged bromodomain proteins were purchased from BPS Bioscience and histone peptide from Genic Bio Synthetic.

Brd2(BD1) = target: T2, Brd2(BD1) (Homo sapiens, UniProt P25440); experiment: HTRF BET selectivity profile, Brd2(BD1); format: binding; conditions: for pIC50: read-out: Brd2(BD1) IC50; for Ratio 2-1 vs 2-2: selectivity Brd2(BD1) vs Brd2(BD2), HTRF IC50
T2 construct: GST tagged bromodomain proteins were purchased from BPS Bioscience; purchased BPS Bioscience
Procedure: (§4) HTRF assays were performed in white 384 Well Small Volume™ HiBase Polystyrene Microplates (Greiner) with a total working volume of 20 μL. Compounds were dispensed, with 100 nL per well (0.5% final DMSO), from a concentration stock of 10 mM in 100% DMSO and with serial DMSO dilutions, using an Echo® 550 robot from the Access Labcyte platform (Labcyte) and based on the transfer of liquid by acoustic wave. Then, 19.5 μL of buffer is added, using a Multidrop Combi (Thermo Fisher Scientific). […] All HTRF reagents (donor and acceptor) were purchased from CisBio Bioassays and reconstituted according to the supplier protocols. The peptide was purchased from Genic Bio Synthetic. The BRD4(1) protein was produced and purified in the laboratory.
as §2, §3

BRD4(BD1) [1] = target: T3, BRD4(BD1) (Homo sapiens, UniProt O60885); experiment: Isothermal Titration Calorimetry; format: binding; conditions: ITC; read-out: Binding affinity (Kd) to BRD4(1) by Isothermal Titration Calorimetry
Procedure: FIG. 1. Isothermal Titration Calorimetry (ITC) of 43c. Thermogram (top) and non-linear least squares fit model of the integrated data (bottom) at 15° C. of Brd4 (BD1) […] as a function of the molar ratio of ligand to the protein.
ITC was used to evaluate the thermodynamics parameters of the binding between BRD4 (BD1) and the selected compounds. Titrations were carried out on a MicroCal ITC200 microcalorimeter (GE Healthcare, Piscataway, N.J.). Each experiment was designed using a titrant concentration (protein in the syringe generally between 100 and 400 μM) set 10 to 15 times the analyte concentration (compound in the cell generally between 10 and 40 μM) and using 13 injections at 25° C. A first small injection (generally 0.2 μL) was included in the titration protocol in order to remove air bubbles trapped in the syringe prior titration. Raw data were scaled after setting the zero to the titration saturation heat value. Integrated raw ITC data were fitted to a one site non-linear least squares fit model using the MicroCal Origin plugin as implemented in Origin 7 (Origin Lab). Finally, ΔG and TΔS values were calculated from the fitted ΔH and KA values using the equations ΔG=−R.T.inKA and ΔG=ΔH−TΔS.

Brd3(BD1) = Brd3(BD1) (Homo sapiens, UniProt Q15059); experiment: HTRF BET selectivity profile, Brd3(BD1); format: binding; set-up: GST tagged bromodomain proteins were purchased from BPS Bioscience; purchased BPS Bioscience; conditions: for Ratio 3-1 vs 3-2: selectivity Brd3(BD1) vs Brd3(BD2), HTRF IC50
Procedure: as §4, §2, §3

BRD4(BD1) [2] = target: T3, BRD4(BD1); experiment: HTRF assay, BRD4(BD1)/histone peptide interaction; format: binding; set-up: made in house; conditions: for pIC50: HTRF; for Ratio 4-1 vs 4-2: selectivity Brd4(BD1) vs Brd4(BD2), HTRF IC50
Procedure: as §4, §2, §3

Brd4(BD2) = target: T4, Brd4(BD2) (Homo sapiens, UniProt O60885); experiment: HTRF BET selectivity profile, Brd4(BD2); format: binding
T4 construct: GST tagged bromodomain proteins were purchased from BPS Bioscience; purchased BPS Bioscience
Procedure: as §1, §2, §3

Brd2(BD2) = target: T5, Brd2(BD2) (Homo sapiens, UniProt P25440); experiment: HTRF BET selectivity profile, Brd2(BD2); format: binding; conditions: read-out: Brd2(BD2) IC50
T5 construct: GST tagged bromodomain proteins were purchased from BPS Bioscience; purchased BPS Bioscience
Procedure: as §4, §2, §3

Brd3(BD2) = target: T6, Brd3(BD2) (Homo sapiens, UniProt Q15059); experiment: HTRF BET selectivity profile, Brd3(BD2); format: binding
T6 construct: GST tagged bromodomain proteins were purchased from BPS Bioscience; purchased BPS Bioscience
Procedure: as §1, §2, §3

Molm14 cells = experiment: Cell Titer-Glo cell viability assay, Molm14; format: cell-based; conditions: Homo sapiens, MOLM-14, 72 h, mean of three experiments, NA = IC50 > maximal concentration used
Procedure: (§5) The human leukemia cell line Jurkat (ATCC® TIB-152) and Molm14 was maintained in RPMI-1640 medium or MEMα, respectively and supplemented both with 10% FBS at 37° C. and 5% CO2.
(§6) In antiproliferative assays, compounds were assayed for their growth inhibiting activity towards the described cancer cell lines using the Cell Titer-Glo Luminescent Cell Viability Assay as described by the manufacturer (Promega Corporation). Briefly, 10.000 cells were plated onto 96 well-plates (white with clear bottom (3610, Corning Costar)) in 90 μL media per well immediately before assay. 10 μL of compounds were added at different concentrations (ranging from 50 μM to 6 nM) to each well and cell cultures were incubated 37° C. during 72 h. Vehicle (DMSO) was used as negative control, JQ1 (a pan-BET inhibitor) was used as positive control and all compounds were tested in constant percentage of DMSO (1%). After addition of 50 μL Cell Titer-GLO, shaking 2 minutes and incubating at room temperature 10 minutes, the Luminescence was measured using a Centro luminometer LB960 (Berthold). Dose-response curves were generated and effective dose 50 values (EC50) were calculated using non-linear regression analysis (Graph Pad Prism).

Jurkat cells = experiment: Cell Titer-Glo cell viability assay, Jurkat; format: cell-based; conditions: Homo sapiens, 72 h, mean of three experiments, NA = IC50 > maximal concentration used
Procedure: as §5, §6

[3] = mean of three experiments, NA = IC50 > 50 μM, read-out: Brd4(8D1) IC50
[4] = triplicates, NA = IC50 > maximal concentration of compound used

T2 sequence (P25440 74-180 limits assumed): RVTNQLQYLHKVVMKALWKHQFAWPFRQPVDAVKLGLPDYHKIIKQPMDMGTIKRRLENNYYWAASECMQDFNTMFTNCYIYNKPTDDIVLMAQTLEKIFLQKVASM
T5 sequence (P25440 344-453 limits assumed): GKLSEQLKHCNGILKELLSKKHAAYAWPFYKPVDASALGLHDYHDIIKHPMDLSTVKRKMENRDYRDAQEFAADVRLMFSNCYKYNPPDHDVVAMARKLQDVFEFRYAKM
Sequence of Brd3(BD1) (Q15059 34-140 limits assumed): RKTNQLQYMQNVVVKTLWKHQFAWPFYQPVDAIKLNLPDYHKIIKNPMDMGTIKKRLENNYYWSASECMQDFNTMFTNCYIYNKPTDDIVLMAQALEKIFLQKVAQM
T6 sequence (Q15059 306-415 limits assumed): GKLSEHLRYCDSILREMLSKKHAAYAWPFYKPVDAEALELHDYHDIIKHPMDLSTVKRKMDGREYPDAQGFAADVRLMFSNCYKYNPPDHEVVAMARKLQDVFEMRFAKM

SMILES	pIC50 (Brdt(BD1))	pIC50 (Brd2(BD1))	Ratio 2-1 vs 2-2 (Brd2(BD1))	pKd (BRD4(BD1) [1])	pIC50 (Brd3(BD1))	Ratio 3-1 vs 3-2 (Brd3(BD1))	pIC50 (BRD4(BD1) [2]; [3])	pIC50 (BRD4(BD1) [2]; [4])	Ratio 4-1 vs 4-2 (BRD4(BD1) [2])	pIC50 (Brd4(BD2))	pIC50 (Brd2(BD2))	pIC50 (Brd3(BD2))	pIC50 (Molm14 cells)	pIC50 (Jurkat cells)
O=C1CCCc2cc(S(=O)(=O)NCC3CCC(C(=O)NCCc4cccs4)CC3)ccc2N1 (single isomer, unassigned) [Compound 5c]				5.55				5.15						
Cc1noc(C)c1CCNC(=O)C1CCC(CNS(=O)(=O)c2ccc3c(c2)CCCC(=O)N3)CC1 (stereo not shown) [Compound 9a]	5.04	4.99	3	5.47	5.30	>10	4.80	4.80	>3		4.47			
O=C1CCCc2cc(S(=O)(=O)C3CCC(C(=O)NCCc4ccccn4)CC3)ccc2N1 (stereo not shown) [Compound 7a]	5.04	4.79	0.4	5.46	4.65	2	5.02	5.02	2	4.68	5.15	4.33		
CCn1cnc2c1c(=O)[nH]c(=O)n2Cc1ccc(CNS(=O)(=O)c2ccc(Oc3cncc(C)n3)cc2)cc1 [Compound 42c]								6.12					4.91	
O=C1CCCc2cc(S(=O)(=O)NCC3CCC(C(=O)NCCc4cccs4)CC3)ccc2N1 (single isomer, unassigned) [Compound 5b, 4-((2-oxo-2,3,4,5-tetrahydro-1H-benzo[b]azepine-7-sulfonamido)methyl)-N-(2-(thiophen-2-yl)ethyl)cyclohexanecarboxamide]	4.84	5.20	>8	5.66	5.62	>21	5.42	5.42	>13					5.03
CCCCc1c(C)nc2nc(SCc3nc4c(c(=O)[nH]c(=O)n4Cc4ccc(CNS(=O)(=O)c5ccc6c(c5)CCCC(=O)N6)cc4)n3CC)nn2c1C [Compound 32c, N-(4-((8-(((6-butyl-5,7-dimethyl-[1,2,4]triazolo[1,5-a]pyrimidin-2-yl)thio)methyl)-7-ethyl-2,6-dioxo-1,2,6,7-tetrahydro-3H-purin-3-yl)methyl)benzyl)-2-oxo-2,3,4,5-tetrahydro-1H-benzo[b]azepine-7-sulfonamide]	4.72	5.33	0.7	5.68	5.35	1	5.97	5.96	9	5.04	5.47	5.38		4.49
O=C1CCCc2cc(S(=O)(=O)NCC3CCC(C(=O)NCCc4ccccn4)CC3)ccc2N1 (stereo not shown) [Compound 7b]				5.06				4.72						
CCn1cnc2c1c(=O)[nH]c(=O)n2Cc1ccc(CNS(=O)(=O)c2ccc(C(=O)N3CCOCC3)cc2)cc1 [Compound 44b]	6.40	6.45	6	6.77	6.64	14	6.91	6.91	34	5.37	5.71	5.48	4.63	
Cc1noc(C)c1CNC(=O)c1ccc(CNS(=O)(=O)c2ccc3c(c2)CCCC(=O)N3)cc1 [Compound 15c]				5.66				5.11						

Further molecules by rising pIC50 (BRD4(BD1) [2]; [4]), results first:

pIC50 (Brdt(BD1))	pIC50 (Brd2(BD1))	Ratio 2-1 vs 2-2 (Brd2(BD1))	pKd (BRD4(BD1) [1])	pIC50 (Brd3(BD1))	Ratio 3-1 vs 3-2 (Brd3(BD1))	pIC50 (BRD4(BD1) [2]; [3])	pIC50 (BRD4(BD1) [2]; [4])	Ratio 4-1 vs 4-2 (BRD4(BD1) [2])	pIC50 (Brd4(BD2))	pIC50 (Brd2(BD2))	pIC50 (Brd3(BD2))	pIC50 (Molm14 cells)	pIC50 (Jurkat cells)	SMILES
							4.89					4.52	4.63	CCn1cnc2c1c(=O)[nH]c(=O)n2Cc1cc(OC)c(CNS(=O)(=O)c2ccc3c(c2)CCCC(=O)N3)cc1OC [Compound 32a]
4.90	5.06	>6	5.24	5.06	>6	4.96	4.96	>5						Cc1noc(C)c1CCNC(=O)c1ccc(CNS(=O)(=O)c2ccc3c(c2)CCCC(=O)N3)cc1 [Compound 16a]
							6.28					5.03		CCn1cnc2c1c(=O)[nH]c(=O)n2Cc1ccc(CNS(=O)(=O)c2ccc(Oc3ccc(C(F)(F)F)cc3)cc2)cc1 [Compound 44c]
			4.69				6.43							CCn1cnc2c1c(=O)[nH]c(=O)n2Cc1ccc(CNC(=O)c2ccc(Cn3cccc3)cc2)cc1 [Compound 33a]
5.96	6.59	9	6.96	6.89	22	7.02	7.02	34	5.48	5.62	5.54			CCn1cnc2c1c(=O)[nH]c(=O)n2Cc1ccc(CNS(=O)(=O)c2ccc(OC3CCOCC3)cc2)cc1 [Compound 43b]
6.36	6.49	3	7.22	6.79	10	7.06	7.06	31	5.57	5.97	5.79			CCn1cnc2c1c(=O)[nH]c(=O)n2Cc1ccc(CNS(=O)(=O)c2ccc(N3CCOCC3)cc2)cc1 [Compound 45a]
